# Data from patent publication US10597388B2, “Pyridazinone herbicides” (FMC CORPORATION, priority 2014, dated 2020).
# Columns and labels:
# Test in all cases: Test D controlled growth environment herbicide test, pre- and postemergence
# Format in all cases: in vivo
# [1] = system: field poppy (Papaver rhoeas)
# Method in brief: (§1)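 Pre-emergence: seeds sown in silt loam soil were sprayed with compound in a non-phytotoxic solvent mix containing surfactant. Post-emergence: plants at 2 to 18 cm (1- to 4-leaf stage) in peat moss/vermiculite medium got the same formulation. Visual 0–100 rating versus controls after 14 to 21 d.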
# [2] = system: ryegrass, Italian (Italian ryegrass, Lolium multiflorum)
# Method in brief: as §1
# [3] = system: pigweed (Amaranthus retroflexus)
# Method in brief: as §1
# [4] = system: wheat, spring (spring wheat, Triticum aestivum)
# Method in brief: as §1
# [5] = system: oilseed rape (Brassica napus)
# Method in brief: as §1
# [6] = system: Russian thistle (Salsola kali)
# Method in brief: as §1
# [7] = system: blackgrass (Alopecurus myosuroides)
# Method in brief: as §1
# [8] = system: wheat, winter (winter wheat, Triticum aestivum)
# Method in brief: as §1
# [9] = system: windgrass (Apera spica-venti)
# Method in brief: as §1
# [10] = system: field violet (Viola arvensis)
# Method in brief: as §1
# [11] = system: radish, wild (wild radish, Raphanus raphanistrum)
# Method in brief: as §1
# [12] = system: deadnettle (henbit deadnettle, Lamium amplexicaule)
# Method in brief: as §1
# [13] = system: chickweed (common chickweed, Stellaria media)
# Method in brief: as §1
# [14] = Postemergence, 31 g ai/ha, scale 0 to 100 (0 no effect, 100 complete control)
# [15] = Postemergence, 125 g ai/ha, visual rating on scale 0 (no effect) to 100 (complete control), 14 to 21 d
# [16] = Postemergence, 250 g ai/ha, scale 0 to 100 (0 no effect, 100 complete control)
# [17] = Preemergence, 125 g ai/ha, scale 0 to 100 (0 no effect, 100 complete control)
# [18] = Preemergence, 250 g ai/ha, scale 0 to 100 (0 no effect, 100 complete control)
# [19] = postemergence, 62 g ai/ha, scale 0 to 100, 0 no effect, 100 complete control
smiles,measurement,setting,value
CC(=O)Oc1c(Br)nn(C)c(=O)c1-c1c(C)ccc2ccccc12 [Compound 129],Field Poppy plant response rating,[1]; [14],70
same,"Plant response rating, Field Poppy",[1]; [15],80
same,"Plant response rating, Field Poppy",[1]; [16],98
same,"Plant response rating (scale of 0 to 100), Field Poppy","[1]; Preemergence, 31 g ai/ha",90
same,"Plant response rating (scale of 0 to 100), Field Poppy","[1]; Preemergence, 62 g ai/ha",98
same,"Plant response rating, Field Poppy",[1]; [17],100
same,"Plant response rating, Field Poppy",[1]; [18],100
same,"Plant response rating, Field Poppy",[1]; [19],75
same,"Ryegrass, Italian plant response rating",[2]; [14],80
same,"Plant response rating, Ryegrass, Italian",[2]; [15],90
same,"Plant response rating, Ryegrass, Italian",[2]; [16],90
same,"Plant response rating (scale of 0 to 100), Ryegrass, Italian","[2]; Preemergence, 31 g ai/ha",70
same,"Plant response rating (scale of 0 to 100), Ryegrass, Italian","[2]; Preemergence, 62 g ai/ha",80
same,"Plant response rating, Ryegrass, Italian",[2]; [17],98
same,"Plant response rating, Ryegrass, Italian",[2]; [18],100
same,"Plant response rating, Ryegrass, Italian",[2]; [19],85
same,Pigweed plant response rating,[3]; [14],98
same,"Plant response rating, Pigweed",[3]; [15],100
same,"Plant response rating, Pigweed",[3]; [16],100
same,"Plant response rating (scale of 0 to 100), Pigweed","[3]; Preemergence, 31 g ai/ha",100
same,"Plant response rating (scale of 0 to 100), Pigweed","[3]; Preemergence, 62 g ai/ha",100
same,"Plant response rating, Pigweed",[3]; [17],100
same,"Plant response rating, Pigweed",[3]; [18],98
same,"Plant response rating, Pigweed",[3]; [19],98
same,"Wheat, Spring plant response rating",[4]; [14],25
same,"Plant response rating, Wheat, Spring",[4]; [15],50
same,"Plant response rating, Wheat, Spring",[4]; [16],70
same,"Plant response rating (scale of 0 to 100), Wheat, Spring","[4]; Preemergence, 31 g ai/ha",25
same,"Plant response rating (scale of 0 to 100), Wheat, Spring","[4]; Preemergence, 62 g ai/ha",50
same,"Plant response rating, Wheat, Spring",[4]; [17],60
same,"Plant response rating, Wheat, Spring",[4]; [18],75
same,"Plant response rating, Wheat, Spring",[4]; [19],35
same,Oilseed Rape plant response rating,[5]; [14],5
same,"Plant response rating, Oilseed Rape",[5]; [15],15
same,"Plant response rating, Oilseed Rape",[5]; [16],70
same,"Plant response rating (scale of 0 to 100), Oilseed Rape","[5]; Preemergence, 31 g ai/ha",0
same,"Plant response rating (scale of 0 to 100), Oilseed Rape","[5]; Preemergence, 62 g ai/ha",15
same,"Plant response rating, Oilseed Rape",[5]; [17],55
same,"Plant response rating, Oilseed Rape",[5]; [18],100
same,"Plant response rating, Oilseed Rape",[5]; [19],5
same,Russian Thistle plant response rating,[6]; [14],70
same,"Plant response rating, Russian Thistle",[6]; [15],85
same,"Plant response rating, Russian Thistle",[6]; [16],90
same,"Plant response rating (scale of 0 to 100), Russian Thistle","[6]; Preemergence, 31 g ai/ha",10
same,"Plant response rating (scale of 0 to 100), Russian Thistle","[6]; Preemergence, 62 g ai/ha",50
same,"Plant response rating, Russian Thistle",[6]; [17],100
same,"Plant response rating, Russian Thistle",[6]; [18],100
same,"Plant response rating, Russian Thistle",[6]; [19],80
same,Blackgrass plant response rating,[7]; [14],35
same,"Plant response rating, Blackgrass",[7]; [15],60
same,"Plant response rating, Blackgrass",[7]; [16],75
same,"Plant response rating (scale of 0 to 100), Blackgrass","[7]; Preemergence, 31 g ai/ha",10
same,"Plant response rating, Blackgrass","[7]; Preemergence, 62 g ai/ha, scale 0 to 100 (0 no effect, 100 complete control)",15
same,"Plant response rating, Blackgrass",[7]; [17],55
same,"Plant response rating, Blackgrass",[7]; [18],75
same,"Plant response rating, Blackgrass",[7]; [19],45
same,"Wheat, Winter plant response rating",[8]; [14],30
same,"Plant response rating, Wheat, Winter",[8]; [15],40
same,"Plant response rating, Wheat, Winter",[8]; [16],55
same,"Plant response rating (scale of 0 to 100), Wheat, Winter","[8]; Preemergence, 31 g ai/ha",10
same,"Plant response rating (scale of 0 to 100), Wheat, Winter","[8]; Preemergence, 62 g ai/ha",35
same,"Plant response rating, Wheat, Winter",[8]; [17],45
same,"Plant response rating, Wheat, Winter",[8]; [18],60
same,"Plant response rating, Wheat, Winter",[8]; [19],35
same,Windgrass plant response rating,[9]; [14],20
same,"Plant response rating, Windgrass",[9]; [15],55
same,"Plant response rating, Windgrass",[9]; [16],90
same,"Plant response rating (scale of 0 to 100), Windgrass","[9]; Preemergence, 31 g ai/ha",35
same,"Plant response rating (scale of 0 to 100), Windgrass","[9]; Preemergence, 62 g ai/ha",45
same,"Plant response rating, Windgrass",[9]; [17],75
same,"Plant response rating, Windgrass",[9]; [18],80
same,"Plant response rating, Windgrass",[9]; [19],35
same,Field Violet plant response rating,[10]; [14],65
same,"Plant response rating, Field Violet",[10]; [15],70
same,"Plant response rating, Field Violet",[10]; [16],75
same,"Plant response rating (scale of 0 to 100), Field Violet","[10]; Preemergence, 31 g ai/ha",85
same,"Plant response rating (scale of 0 to 100), Field Violet","[10]; Preemergence, 62 g ai/ha",85
same,"Plant response rating, Field Violet",[10]; [17],85
same,"Plant response rating, Field Violet",[10]; [18],100
same,"Plant response rating, Field Violet",[10]; [19],70
same,"Radish, Wild plant response rating",[11]; [14],60
same,"Plant response rating, Radish, Wild",[11]; [15],80
same,"Plant response rating, Radish, Wild",[11]; [16],98
same,"Plant response rating (scale of 0 to 100), Radish, Wild","[11]; Preemergence, 31 g ai/ha",80
same,"Plant response rating (scale of 0 to 100), Radish, Wild","[11]; Preemergence, 62 g ai/ha",100
same,"Plant response rating, Radish, Wild",[11]; [17],100
same,"Plant response rating, Radish, Wild",[11]; [18],100
same,"Plant response rating, Radish, Wild",[11]; [19],75
same,Deadnettle plant response rating,[12]; [14],35
same,"Plant response rating, Deadnettle",[12]; [15],70
same,"Plant response rating, Deadnettle",[12]; [16],95
same,"Plant response rating (scale of 0 to 100), Deadnettle","[12]; Preemergence, 31 g ai/ha",60
same,"Plant response rating (scale of 0 to 100), Deadnettle","[12]; Preemergence, 62 g ai/ha",75
same,"Plant response rating, Deadnettle",[12]; [17],75
same,"Plant response rating, Deadnettle",[12]; [18],95
same,"Plant response rating, Deadnettle",[12]; [19],40
same,Chickweed plant response rating,[13]; [14],100
same,"Plant response rating, Chickweed",[13]; [15],100
same,"Plant response rating, Chickweed",[13]; [16],100
same,"Plant response rating (scale of 0 to 100), Chickweed","[13]; Preemergence, 31 g ai/ha",98
same,"Plant response rating (scale of 0 to 100), Chickweed","[13]; Preemergence, 62 g ai/ha",100
same,"Plant response rating, Chickweed",[13]; [17],98
same,"Plant response rating, Chickweed",[13]; [18],100
same,"Plant response rating, Chickweed",[13]; [19],100
